Test results reported in PubChem BioAssay AID1259321 (Sanford-Burnham Center for Chemical Genomics, 2017).
Calls of active or inactive are those of the source.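 Rule for the calls: active = half-maximal concentration for changing protein binding to DNA, from the fitted dose curve, below 10 micromolar; inactive = the rest.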

biological target: Nuclear receptor subfamily 1 group D member 1 (Homo sapiens) (UniProt P20393); test: Rev-erbα–DNA interaction modulators – biochemical, FITC-DNA, fluorescence polarization, dose response (AID 1259321); settings: Rev-erb alpha-FITC-DNA binding
Sequence (P20393 whole entry, looked up): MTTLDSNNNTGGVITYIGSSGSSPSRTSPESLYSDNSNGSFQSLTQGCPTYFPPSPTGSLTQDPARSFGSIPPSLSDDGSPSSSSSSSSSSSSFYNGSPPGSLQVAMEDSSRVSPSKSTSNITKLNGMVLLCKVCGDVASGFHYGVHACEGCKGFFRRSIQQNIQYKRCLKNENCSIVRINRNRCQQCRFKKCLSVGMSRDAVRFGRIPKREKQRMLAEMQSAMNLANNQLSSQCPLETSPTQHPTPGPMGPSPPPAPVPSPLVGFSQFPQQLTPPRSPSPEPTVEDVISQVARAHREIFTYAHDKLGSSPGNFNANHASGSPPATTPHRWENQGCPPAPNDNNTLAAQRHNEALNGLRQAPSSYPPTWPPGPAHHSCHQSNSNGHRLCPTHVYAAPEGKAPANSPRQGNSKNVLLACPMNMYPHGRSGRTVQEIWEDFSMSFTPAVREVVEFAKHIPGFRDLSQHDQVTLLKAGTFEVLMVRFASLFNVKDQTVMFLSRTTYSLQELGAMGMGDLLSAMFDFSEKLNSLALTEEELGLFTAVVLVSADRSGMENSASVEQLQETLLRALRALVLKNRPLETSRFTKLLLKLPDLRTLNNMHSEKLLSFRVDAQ

Q: For `COCCn1c(=NC(=O)CCS(=O)(=O)c2ccccc2)sc2cc(C(=O)OC)ccc21`, which IC50 is on record?
A: > 40 µM (inactive)

Q: With `CCCN=C(C)c1c(-c2ccccc2)[nH]n(-c2nc3ccccc3s2)c1=O` as the molecule, how does the IC50 read?
A: 0.917 µM

Q: Which IC50 does the source give for `CCCSc1nc(SCC(=O)NCc2ccccc2)c2c3c(sc2n1)COC(C)(CC)C3` (stereo not given) here?
A: > 40 µM (inactive)

Q: With `OCC[n+]1ccc(/C=C/c2c[nH]c3ccccc23)cc1` as the molecule, how does the IC50 read?
A: > 40 µM (inactive)

Q: `CCOC(=O)c1c(NC(=O)CSc2nc3ccccc3s2)sc(C(C)=O)c1C` was tested. Which IC50 did it give?
A: inactive

Q: For `Cc1sc2nc(SC(C)C)nc(N)c2c1C`, which IC50 is on record?
A: 3.72 µM

Q: With `Brc1nc(-c2ccccc2)nc(-c2ccccc2)c1Br` as the molecule, how does the IC50 read?
A: > 40 µM (inactive)

Q: Which IC50 does the source give for `Cc1ccc2cc(C#N)c(SCC(=O)NNC(=O)Cc3ccccc3)nc2c1` here?
A: 4.25 µM

Q: For `N#Cc1c(N)nc(Sc2ccc(Cl)cc2)c(C#N)c1-c1ccccc1Cl`, which IC50 is on record?
A: 6.32 µM

Q: `CCOC(=O)COc1c(Cl)cc(C2NC(=S)NC(c3ccccc3)=C2C(C)=O)cc1OCC` (stereo not given) was tested. Which IC50 did it give?
A: 1.16 µM

Q: `CN1C(=O)C(=Cc2ccc(N3CCCCC3)o2)C(=O)N(C)C1=S` was tested. Which IC50 did it give?
A: inactive

Q: `COc1cc(OC)cc(C(=O)OCc2cc3ccccc3[nH]c2=O)c1` was tested. Which IC50 did it give?
A: inactive

Q: How did the IC50 turn out when `Cc1c(Cl)cccc1NC(=O)Cn1cc(C(F)(F)F)cc(Cl)c1=O` was run?
A: > 40 µM (inactive)

Q: Which IC50 does the source give for `CCSc1nnc(-c2ccc(Cl)cc2)c2ccccc12` here?
A: 7.11 µM

Q: Which IC50 does the source give for `COc1ccc(-n2nc(C(=O)NCC(=O)Nc3cccc(Cl)c3)c3ccccc3c2=O)cc1` here?
A: inactive

Q: With `CCOc1ccccc1-c1nc(-c2ccc(NC(=O)Cc3ccc(OC)cc3)cc2)no1` as the molecule, how does the IC50 read?
A: 6.52 µM

Q: How did the IC50 turn out when `CCC(=O)c1cn(CC(=O)Nc2cccc(C)c2)c2ccccc12` was run?
A: > 40 µM (inactive)

Q: How did the IC50 turn out when `O=S(=O)(Cc1cc(NCc2ccccc2)nc(-c2ccncc2)n1)c1ccccc1` was run?
A: > 40 µM (inactive)

Q: With `CCOC(=O)c1c(NC(=O)C2CCCN(S(=O)(=O)c3ccccc3)C2)sc2c1CCCC2` (stereo not given) as the molecule, how does the IC50 read?
A: 3.46 µM

Q: `CN(C)c1ccc(/C=C/c2cc[n+](C)cc2)cc1` was tested. Which IC50 did it give?
A: 3.47 µM

Q: `CCN(Cc1nc2cc(Cl)ccc2c(=O)[nH]1)C(=O)c1cc2c(s1)CCCCC2` was tested. Which IC50 did it give?
A: 3.21 µM

Q: Which IC50 does the source give for `Cc1cccc(-c2nnn3c2nc(NCCc2ccc(S(N)(=O)=O)cc2)c2ccccc23)c1` here?
A: > 40 µM (inactive)

Q: Which IC50 does the source give for `CCOC(=O)c1c(NC(=S)Nc2ccc(OC)cc2)sc2c1CCC2` here?
A: 5.93 µM

Q: With `Cc1c(Br)ccc(NC(=O)Cn2nc(-c3cccs3)ccc2=O)c1C` as the molecule, how does the IC50 read?
A: 4.84 µM

Q: Which IC50 does the source give for `Cc1ccc2nc(SCC(=O)Nc3ccc4sc(C)nc4c3)c(C#N)cc2c1` here?
A: > 40 µM (inactive)

Q: Which IC50 does the source give for `COc1ccc(N2C(=O)c3cccc4c(N(C)CCO)ccc(c34)C2=O)cc1` here?
A: inactive

Q: Which IC50 does the source give for `CC1(C)Cc2nc3sc4c(SCC(=O)NC(c5ccccc5)c5ccccc5)ncnc4c3cc2CO1` here?
A: > 40 µM (inactive)

Q: For `Cc1cc(-c2nnc3sc(-c4ccc(Cl)cc4Cl)nn23)n[nH]1`, which IC50 is on record?
A: > 40 µM (inactive)

Q: With `Cc1ccc(-c2nn3c(C)nnc3s2)cc1NC(=O)c1ccc(-c2ccc(Cl)cc2Cl)o1` as the molecule, how does the IC50 read?
A: > 40 µM (inactive)

Q: Which IC50 does the source give for `COc1ccccc1-c1nc(SCC(=O)N(C)c2ccccc2)c2c(=O)n(C)c(=O)n(C)c2n1` here?
A: 3.13 µM

Q: For `CCOC(=O)c1sc(=NC(=O)c2ccc(OC(C)C)cc2)n(C)c1C`, which IC50 is on record?
A: 0.933 µM

Q: For `CCOC(=O)c1nn(-c2ccc(F)cc2)c(=O)cc1OCC(=O)Nc1cccc(C)c1`, which IC50 is on record?
A: 9.68 µM

Q: Which IC50 does the source give for `Cc1ccc(N(Cc2cc3cc(C)ccc3[nH]c2=O)C(=O)c2cccs2)cc1` here?
A: 5.54 µM

Q: Which IC50 does the source give for `O=C(Nc1ccc2oc(-c3cccc(F)c3)nc2c1)c1ccccc1F` here?
A: 2.87 µM

Q: With `O=[N+]([O-])c1ccc2c(c1)Cc1cc(F)ccc1-2` as the molecule, how does the IC50 read?
A: 9.46 µM

Q: How did the IC50 turn out when `O=C(CSc1nnnn1-c1ccc2c(c1)OCCO2)c1cccc2c1OCCO2` was run?
A: 2.98 µM

Q: Which IC50 does the source give for `N#C/C(=C(/O)C(Cl)c1ccccc1)c1nc2ccccc2s1` (stereo not given) here?
A: 5.7 µM

Q: How did the IC50 turn out when `Cc1ccc(OCC(=O)Nc2ccc(O)c(-c3nc4ccccc4o3)c2)cc1` was run?
A: > 40 µM (inactive)

Q: For `Brc1ccc(-c2nn3c(-c4ccccc4)nnc3s2)cc1`, which IC50 is on record?
A: > 40 µM (inactive)

Q: Which IC50 does the source give for `CN(C)C=Nc1nc2c(Br)ccc(Br)c2cc1C(=O)NCC(C)(C)C` here?
A: inactive

Q: How did the IC50 turn out when `COc1ccc(NC(=O)CSc2nc3ccccc3c(=O)n2-c2ccc3c(c2)OCO3)c(OC)c1` was run?
A: > 40 µM (inactive)

Q: Which IC50 does the source give for `CC[n+]1c(/C=C/c2c[nH]c3ccccc23)ccc2cc(C)ccc21` here?
A: inactive

Q: `CCCN1C(=O)c2cccc3c(N4CCCCC4)ccc(c23)C1=O` was tested. Which IC50 did it give?
A: 8.14 µM

Q: For `Cc1cc(=O)oc2cc(OCC(=O)Nc3ccc(S(=O)(=O)N(C)C)cc3)ccc12`, which IC50 is on record?
A: > 40 µM (inactive)

Q: `O=C(Nc1ccc2c(c1)C(=O)NC2=O)c1cc(Cl)ccc1Cl` was tested. Which IC50 did it give?
A: inactive

Q: How did the IC50 turn out when `COc1ccc(-n2c(SCC(=O)NC3CCCCC3)nc3ccsc3c2=O)cc1` was run?
A: 5.08 µM

Q: For `CCOc1ccccc1CNC(=O)C1CCN(c2nnc(C)c3c(C)n(-c4ccc(C)cc4)nc23)CC1`, which IC50 is on record?
A: > 40 µM (inactive)

Q: `O=c1ccc(-c2ccc(S(=O)(=O)N3CCN(c4cccc(Cl)c4)CC3)o2)n[nH]1` was tested. Which IC50 did it give?
A: 1.9 µM

Q: For `COc1ccc2nc(SCc3cccnc3)c(C#N)cc2c1`, which IC50 is on record?
A: 2.51 µM

Q: `COc1ccc(/C=C/C(=O)NC(=S)N2CCN(c3ccccc3OC)CC2)cc1` was tested. Which IC50 did it give?
A: 1.65 µM

Q: For `Cc1c(Cl)ccc2c(C(N)=O)cc(-c3ccccn3)nc12`, which IC50 is on record?
A: 5.97 µM

Q: With `O=C(Nc1nc(-c2ccccc2)c(C(=O)c2ccccc2)s1)c1ccc(S(=O)(=O)N2CCCCC2)cc1` as the molecule, how does the IC50 read?
A: 0.541 µM

Q: `Brc1cc(Br)c2ncnc(N3CCCCC3)c2c1` was tested. Which IC50 did it give?
A: 0.989 µM

Q: How did the IC50 turn out when `COc1cc(-c2ccc3c(=O)c4ccccc4sc3c2)cc(OC)c1OC` was run?
A: 2.86 µM

Q: How did the IC50 turn out when `COc1cc(/C=C2\SC(=O)N(CCNC(=O)c3sc4cc(F)ccc4c3Cl)C2=O)cc(OC)c1OC` was run?
A: 4.87 µM

Q: For `Cc1ccc2cc(C#N)c(SCC(=O)N3CCCc4ccccc43)nc2c1`, which IC50 is on record?
A: 6.5 µM

Q: Which IC50 does the source give for `CCCCCNC(=O)c1c[nH]c2ccc(S(=O)(=O)N3CCC4(CC3)OCCO4)cc2c1=O` here?
A: inactive

Q: With `Cc1cccc2cc(C#N)c(SCC(=O)N3CCC(C)CC3)nc12` as the molecule, how does the IC50 read?
A: 1.26 µM

Q: Which IC50 does the source give for `Cn1cncc1C#Cc1ccc2cc(C3(O)CCCCC3)oc(=O)c2c1` here?
A: inactive

Q: `Cc1cccc2cc(C#N)c(SCC(=O)NCc3cccs3)nc12` was tested. Which IC50 did it give?
A: 9.79 µM

Q: With `CCOc1ccc2nc(N=Nc3c(O)[nH]c(=S)[nH]c3=O)sc2c1` as the molecule, how does the IC50 read?
A: > 40 µM (inactive)

Q: Which IC50 does the source give for `CCOc1ccc(CC(=O)Nc2sc(Cc3ccccc3)cc2C(N)=O)cc1OCC` here?
A: > 40 µM (inactive)

Q: Which IC50 does the source give for `Cc1ccc(-n2c(SCC(=O)NCc3ccco3)nc3sc4c(c3c2=O)CC(C)(C)SC4)cc1` here?
A: 1.93 µM

Q: Which IC50 does the source give for `O=C(OCC(=O)N1CCN(S(=O)(=O)c2ccc(Cl)cc2)CC1)c1cc(Br)ccc1O` here?
A: 2.22 µM

Q: With `COc1ccc(-c2c(C#N)c(SCC(N)=O)nc3c2CCCC3)cc1` as the molecule, how does the IC50 read?
A: 3.93 µM

Q: `CCc1cc2cc(C)ccc2nc1SCC(=O)NC1CCCC1` was tested. Which IC50 did it give?
A: 3.66 µM

Q: How did the IC50 turn out when `O=c1cc(-c2ccccc2Cl)oc2c(NS(=O)(=O)c3cccs3)ccc(O)c12` was run?
A: inactive

Q: For `Cc1c(-c2ccc(F)cc2)nc(N)c(C#N)c1-c1cccs1`, which IC50 is on record?
A: 1.77 µM

Q: With `COc1ccc(C(=O)Nc2nnc(Cc3ccccc3)s2)c(OC)c1` as the molecule, how does the IC50 read?
A: inactive

Q: `O=C(CSc1ncnc2c1oc1ccccc12)Nc1cccc(Cl)c1` was tested. Which IC50 did it give?
A: 4.59 µM

Q: For `c1ccc2nc(-c3ccc(N4CCOCC4)cc3)ccc2c1`, which IC50 is on record?
A: > 40 µM (inactive)

Q: With `Cc1ccc(C)c2nc(SCC(=O)N3CCCc4ccccc43)c(C#N)cc12` as the molecule, how does the IC50 read?
A: 6.12 µM

Q: How did the IC50 turn out when `COc1ccc2[nH]c(C(=O)Nc3ccc(C)c(F)c3)cc2c1` was run?
A: 0.647 µM

Q: For `CCn1c(=O)cc(SCC(=O)Nc2ccc(Cl)cc2)c2ccccc21`, which IC50 is on record?
A: 5.59 µM

Q: How did the IC50 turn out when `Cc1ccc(-c2cc(C(F)F)nc3sc4c(=O)[nH]cnc4c23)cc1` was run?
A: 6.05 µM
